Here are results for 38 compounds from ChEMBL document CHEMBL1135750, “Phenoxyphenyl sulfone N-formylhydroxylamines (retrohydroxamates) as potent, selective, orally bioavailable matrix metalloproteinase inhibitors” (J Med Chem, 2002).

Each structure is given as a SMILES string. Bounds are passed on as bounds.

Data set [1] is described as follows: AUC in monkey. Also on record: concentration or dose not given beside the values. To be noted: simiiformes, plasma. The data set is classed as ADME.
The next data set addresses T1, Interstitial collagenase (Homo sapiens, UniProt P03956).
T1 sequence (P03956 whole entry): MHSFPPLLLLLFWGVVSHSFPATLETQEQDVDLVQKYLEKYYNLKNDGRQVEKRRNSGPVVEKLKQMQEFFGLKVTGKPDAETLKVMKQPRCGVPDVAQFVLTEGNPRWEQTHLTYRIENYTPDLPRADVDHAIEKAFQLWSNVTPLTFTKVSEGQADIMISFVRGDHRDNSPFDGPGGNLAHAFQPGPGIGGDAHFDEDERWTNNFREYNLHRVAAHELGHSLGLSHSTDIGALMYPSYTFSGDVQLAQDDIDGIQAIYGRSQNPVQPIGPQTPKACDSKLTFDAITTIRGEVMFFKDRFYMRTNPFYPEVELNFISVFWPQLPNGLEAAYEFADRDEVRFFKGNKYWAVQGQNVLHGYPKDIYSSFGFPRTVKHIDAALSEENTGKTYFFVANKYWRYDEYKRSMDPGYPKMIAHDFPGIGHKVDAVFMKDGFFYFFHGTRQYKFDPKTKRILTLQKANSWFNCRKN
As to the kind of experiment: In vitro selective inhibition against matrix metalloprotease-1 (MMP-1) using a fluorimetric assay.

The nature of data set [2]: Half life measured as t1/2 in hours after iv administration in cynomolgus monkey. To be noted: in vivo. The data set is classed as ADME, organism-based, Macaca fascicularis.
Data set [3] deals with 72 kDa type IV collagenase (Homo sapiens, UniProt P08253). The data set can be described thus: In vitro selective inhibition against matrix metalloprotease-2 (MMP-2) using fluorimetric assay.
In data set [4] the target is Matrix metalloproteinase-9 (Homo sapiens, UniProt P14780). The data set can be described thus: In vitro selective inhibition against Matrix metalloprotease-9 (MMP-9) using fluorimetric assay.
Sequence of Matrix metalloproteinase-9 (P14780 whole entry): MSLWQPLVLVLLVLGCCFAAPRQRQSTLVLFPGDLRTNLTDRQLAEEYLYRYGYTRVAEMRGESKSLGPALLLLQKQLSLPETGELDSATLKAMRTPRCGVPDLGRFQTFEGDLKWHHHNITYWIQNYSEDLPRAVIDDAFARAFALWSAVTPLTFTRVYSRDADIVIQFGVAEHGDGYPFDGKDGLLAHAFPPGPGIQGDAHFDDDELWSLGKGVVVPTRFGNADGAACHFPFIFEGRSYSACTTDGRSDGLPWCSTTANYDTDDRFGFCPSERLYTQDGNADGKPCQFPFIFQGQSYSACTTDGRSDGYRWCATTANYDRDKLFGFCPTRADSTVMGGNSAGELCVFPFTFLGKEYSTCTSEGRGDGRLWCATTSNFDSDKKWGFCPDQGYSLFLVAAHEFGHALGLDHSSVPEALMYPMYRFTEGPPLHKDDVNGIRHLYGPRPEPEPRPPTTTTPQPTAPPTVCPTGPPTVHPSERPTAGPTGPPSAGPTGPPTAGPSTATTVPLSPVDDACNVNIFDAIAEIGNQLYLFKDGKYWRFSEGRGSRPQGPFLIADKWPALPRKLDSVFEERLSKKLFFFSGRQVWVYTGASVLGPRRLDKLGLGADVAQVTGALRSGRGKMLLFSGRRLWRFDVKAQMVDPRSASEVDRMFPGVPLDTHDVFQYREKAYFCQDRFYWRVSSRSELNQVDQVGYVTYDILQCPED

Sequence of 72 kDa type IV collagenase (P08253 whole entry): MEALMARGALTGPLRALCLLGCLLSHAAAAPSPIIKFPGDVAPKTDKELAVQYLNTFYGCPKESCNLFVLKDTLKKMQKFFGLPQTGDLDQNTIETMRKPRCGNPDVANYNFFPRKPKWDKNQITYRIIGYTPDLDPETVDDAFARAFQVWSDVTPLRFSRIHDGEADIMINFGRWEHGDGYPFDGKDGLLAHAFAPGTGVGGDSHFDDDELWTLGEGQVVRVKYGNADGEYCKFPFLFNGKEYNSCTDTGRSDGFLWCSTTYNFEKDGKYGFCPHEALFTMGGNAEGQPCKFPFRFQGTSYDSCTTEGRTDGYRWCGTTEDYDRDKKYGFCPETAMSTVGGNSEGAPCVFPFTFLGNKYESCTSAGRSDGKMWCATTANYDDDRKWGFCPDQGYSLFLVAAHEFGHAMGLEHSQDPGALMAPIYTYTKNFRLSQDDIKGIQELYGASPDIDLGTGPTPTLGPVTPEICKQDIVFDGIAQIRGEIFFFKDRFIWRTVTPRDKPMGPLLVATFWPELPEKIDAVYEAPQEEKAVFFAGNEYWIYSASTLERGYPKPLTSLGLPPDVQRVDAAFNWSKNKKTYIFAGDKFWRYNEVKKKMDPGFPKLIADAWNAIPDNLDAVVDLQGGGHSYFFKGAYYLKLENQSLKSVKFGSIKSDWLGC

In turn, `CN1C(=O)N(CC(CS(=O)(=O)c2ccc(Oc3ccc(OC(F)(F)F)cc3)cc2)N(O)C=O)C(=O)C1(C)C` (centres undefined) came in with an AUC in data set [1] of 1 µM·h. Besides, the IC50 against Interstitial collagenase was above 50 µM; in data set [3], 1.8 nM. Also, the half-life in data set [2] was 42 min.

As for `O=CN(O)C(COCCO)CS(=O)(=O)c1ccc(Oc2ccc(OC(F)(F)F)cc2)cc1` (centres undefined), the figures for the IC50 (in data set [4]; at Interstitial collagenase; in data set [3]) were 0.3 nM, above 50 µM and 0.44 nM, respectively.

With `O=C(C[C@H](CSc1ccccc1)C(=O)O)c1ccc(-c2ccc(Cl)cc2)cc1` [TANOMASTAT], the IC50 in data set [4] was 301 nM; on Interstitial collagenase it was above 5 µM; in data set [3], 11 nM.

Consider `O=CN(O)C(CCc1ccc(C(=O)O)cc1)CS(=O)(=O)c1ccc(Oc2ccc(OC(F)(F)F)cc2)cc1` (centres undefined), for which the IC50 was 0.53 nM in data set [4], above 50 µM against Interstitial collagenase and 0.53 nM in data set [3]. In addition, the AUC in data set [1] turned out to be 16 µM·h.

With `CC1(C)OC[C@@H]([C@@H](CS(=O)(=O)c2ccc(Oc3ccc(OC(F)(F)F)cc3)cc2)N(O)C=O)O1` (stereo in doubt; 19v), the IC50 in data set [4] is 2.3 nM; against Interstitial collagenase it was above 50 µM; in data set [3], 6.3 nM.

Turning to `CC1(C)OC[C@@H]([C@@H](CS(=O)(=O)c2ccc(Oc3ccc(OC(F)(F)F)cc3)cc2)N(O)C=O)O1` (stereo in doubt; 19x), the results for the IC50 (in data set [4]; at Interstitial collagenase; in data set [3]) were 480 nM, above 50 µM and 260 nM, respectively.

Take `Cn1c(C(CS(=O)(=O)c2ccc(Oc3ccc(OC(F)(F)F)cc3)cc2)N(O)C=O)cc2ccccc21` (centres undefined): the figures for the IC50 (in data set [4]; against Interstitial collagenase; in data set [3]) were 12 nM, above 50 µM and 9.5 nM, respectively.

In the case of `CN(CC(CS(=O)(=O)c1ccc(Oc2ccc(OC(F)(F)F)cc2)cc1)N(O)C=O)S(C)(=O)=O` (centres undefined), the figures for the IC50 (in data set [4]; on Interstitial collagenase; in data set [3]) were 1.7 nM, 2 µM and 12 nM, respectively.

`O=CN(O)C(CS(=O)(=O)c1ccc(Oc2ccc(OC(F)(F)F)cc2)cc1)CS(=O)(=O)N1CCOCC1` (centres undefined): the IC50 was 0.86 nM in data set [4], 2.5 µM on Interstitial collagenase and 0.39 nM in data set [3]. The compound also registered an AUC in data set [1] of 3 µM·h.

Regarding `O=CN(O)C(CS(=O)(=O)c1ccc(Oc2ccc(OC(F)(F)F)cc2)cc1)[C@H](O)CO` (some centres undefined), the values for the IC50 (in data set [4]; at Interstitial collagenase; in data set [3]) were 0.092 nM, above 50 µM and 0.36 nM, respectively. This compound registered an AUC in data set [1] of 3 µM·h.

Regarding `CCC1(CC)OCC([C@@H](CS(=O)(=O)c2ccc(Oc3ccc(OC(F)(F)F)cc3)cc2)N(O)C=O)O1` (some centres undefined), the IC50 was determined as 1.1 nM in data set [4], 8.3 µM on Interstitial collagenase and 20 nM in data set [3]. This compound had an AUC in data set [1] of 5 µM·h.

Take `CC1(C)NC(=O)N(CC(CS(=O)(=O)c2ccc(-c3ccc(OC(F)(F)F)cc3)cc2)N(O)C=O)C1=O` (centres undefined): the figures for the IC50 (in data set [4]; on Interstitial collagenase; in data set [3]) were 0.34 nM, 0.082 µM and 0.86 nM, respectively. The compound also registered an AUC in data set [1] of 5 µM·h.

With `CS(=O)(=O)N1CCC[C@H]1[C@@H](CS(=O)(=O)c1ccc(Oc2ccc(OC(F)(F)F)cc2)cc1)N(O)C=O`, the IC50 in data set [4] is 2 nM; against Interstitial collagenase, 8 µM; in data set [3], 1.9 nM. The same compound returned an AUC in data set [1] of 24 µM·h.

Regarding `CC1(C)NC(=O)N(CC(CS(=O)(=O)c2ccc(-c3ccc(C(F)(F)F)cc3)cc2)N(O)C=O)C1=O` (centres undefined), the IC50 in data set [4] was 10 nM; in data set [3], 0.45 nM. In addition, the AUC in data set [1] was 4 µM·h. The same compound showed a half-life in data set [2] of 204 min.

With `O=CN(O)C(CS(=O)(=O)c1ccc(Oc2ccc(OC(F)(F)F)cc2)cc1)C(CO)CO` (centres undefined), the IC50 in data set [4] was 0.49 nM; on Interstitial collagenase it was above 50 µM; in data set [3], 2.8 nM. In addition, in data set [1], the AUC stood at 8 µM·h. Further, the half-life in data set [2] is 114 min.

Take `O=CN(O)C(CS(=O)(=O)c1ccc(Oc2ccc(OC(F)(F)F)cc2)cc1)c1ccccc1` (centres undefined): the IC50 is 4.1 nM in data set [4], above 50 µM at Interstitial collagenase and 7.4 nM in data set [3].

As for `CN(C)CC(CS(=O)(=O)c1ccc(Oc2ccc(OC(F)(F)F)cc2)cc1)N(O)C=O` (centres undefined), the IC50 in data set [4] worked out at 0.9 nM; on Interstitial collagenase, 5.2 µM; in data set [3], 1.3 nM. Further, in data set [1], the AUC is 3 µM·h. In data set [2], this compound had a half-life of 132 min.

Take `COC(=O)c1ccc(CCC(CS(=O)(=O)c2ccc(Oc3ccc(OC(F)(F)F)cc3)cc2)N(O)C=O)cc1` (centres undefined): the IC50 in data set [4] was 0.98 nM; against Interstitial collagenase it was above 50 µM; in data set [3], 34 nM.

Take `O=CN(O)C(CO)CS(=O)(=O)c1ccc(Oc2ccc(OC(F)(F)F)cc2)cc1` (centres undefined): the IC50 in data set [4] amounted to 0.26 nM; in data set [3], 0.35 nM. The compound also showed a half-life in data set [2] of 60 min.

For `CN1C(=O)N(CC(CS(=O)(=O)c2ccc(Oc3ccc(C#N)cc3)cc2)N(O)C=O)C(=O)C1(C)C` (centres undefined), the IC50 in data set [4] came out at 1.8 nM; against Interstitial collagenase, 2.5 µM; in data set [3], 1.4 nM.

Take `CC1(C)NC(=O)N(CC(CS(=O)(=O)c2ccc(Oc3ccc(C#N)cc3)cc2)N(O)C=O)C1=O` (centres undefined): the IC50 in data set [4] was 3.9 nM; against Interstitial collagenase, 0.99 µM; in data set [3], 0.93 nM. The AUC in data set [1] worked out at 1 µM·h.

`O=CN(O)C(CS(=O)(=O)c1ccc(Oc2ccc(OC(F)(F)F)cc2)cc1)C1CCCO1` (centres undefined): the IC50 in data set [4] was 0.32 nM; against Interstitial collagenase, above 50 µM; in data set [3], 0.61 nM. Also, the AUC in data set [1] was found to be 26 µM·h.

Regarding `CC1(C)NC(=O)N(CC(CS(=O)(=O)c2ccc(Oc3ccc(OC(F)(F)F)cc3)cc2)N(O)C=O)C1=O` (centres undefined), the figures for the IC50 (in data set [4]; on Interstitial collagenase; in data set [3]) were 2 nM, 0.82 µM and 1.3 nM, respectively. In data set [1], this compound yielded an AUC of 8 µM·h.

With `O=CN(O)C(CCC(=O)N1CCOCC1)CS(=O)(=O)c1ccc(Oc2ccc(OC(F)(F)F)cc2)cc1` (centres undefined), the IC50 was 2 nM in data set [4], above 50 µM against Interstitial collagenase and 2.6 nM in data set [3]. Also, the half-life in data set [2] is 516 min.

Take `CC1(C)NC(=O)N(CC(CS(=O)(=O)c2ccc(-c3ccc(C#N)cc3)cc2)N(O)C=O)C1=O` (centres undefined): the values for the IC50 (in data set [4]; against Interstitial collagenase; in data set [3]) were 4.1 nM, 0.036 µM and 0.34 nM, respectively. Besides, in data set [2], the half-life is 66 min.

For the compound `CCCCOc1ccc(-c2ccc(S(=O)(=O)CC(CN3C(=O)NC(C)(C)C3=O)N(O)C=O)cc2)cc1` (centres undefined), the figures for the IC50 (in data set [4]; against Interstitial collagenase; in data set [3]) were 6.2 nM, 0.24 µM and 2.4 nM, respectively.

Consider `CSc1ccc(-c2ccc(S(=O)(=O)CC(CN3C(=O)NC(C)(C)C3=O)N(O)C=O)cc2)cc1` (centres undefined), for which the IC50 is 1.1 nM in data set [4], 0.0029 µM against Interstitial collagenase and 0.67 nM in data set [3].

Regarding `C[C@@H]1OC(C)(C)OC1[C@@H](CS(=O)(=O)c1ccc(Oc2ccc(OC(F)(F)F)cc2)cc1)N(O)C=O` (some centres undefined), the figures for the IC50 (in data set [4]; against Interstitial collagenase; in data set [3]) were 1.1 nM, above 50 µM and 1.9 nM, respectively. Also, the AUC in data set [1] is 21 µM·h. In data set [2], this compound gave a half-life of 1170 min.

On to `O=CN(O)C(CS(=O)(=O)c1ccc(Oc2ccc(OC(F)(F)F)cc2)cc1)c1ccccn1` (centres undefined), for which the IC50 in data set [4] was 2.2 nM; against Interstitial collagenase, above 50 µM; in data set [3], 1.7 nM. In data set [1], the AUC was 1 µM·h.

On to `CN(C)S(=O)(=O)CC(CS(=O)(=O)c1ccc(Oc2ccc(OC(F)(F)F)cc2)cc1)N(O)C=O` (centres undefined), for which the IC50 in data set [4] stood at 7.2 nM; at Interstitial collagenase, 6.6 µM; in data set [3], 0.098 nM. The compound also gave an AUC in data set [1] of 4 µM·h.

For the compound `O=CN(O)C(CS(=O)(=O)c1ccc(Oc2ccc(OC(F)(F)F)cc2)cc1)c1ccc(C(F)(F)F)cc1` (centres undefined), the IC50 in data set [4] was 37 nM; against Interstitial collagenase it was above 50 µM; in data set [3], 62 nM.

Regarding `O=CN(O)C(CSc1cccs1)CS(=O)(=O)c1ccc(Oc2ccc(OC(F)(F)F)cc2)cc1` (centres undefined), the IC50 in data set [4] turned out to be 9.7 nM; against Interstitial collagenase it was 6.7 µM; in data set [3], 3.6 nM.

In the case of `CC1(C)NC(=O)N(CC(CS(=O)(=O)c2ccc(-c3cccc(CC#N)c3)cc2)N(O)C=O)C1=O` (centres undefined), the IC50 in data set [4] was determined as 0.91 nM; on Interstitial collagenase it was 0.078 µM; in data set [3], 0.35 nM. The half-life in data set [2] is 30 min.

For the compound `Cn1ccc(=O)n(CC(CS(=O)(=O)c2ccc(Oc3ccc(OC(F)(F)F)cc3)cc2)N(O)C=O)c1=O` (centres undefined), the results for the IC50 (in data set [4]; against Interstitial collagenase; in data set [3]) were 1.4 nM, 9.9 µM and 0.91 nM, respectively. In data set [1], this compound registered an AUC of 11 µM·h.

For `COCC(CS(=O)(=O)c1ccc(Oc2ccc(OC(F)(F)F)cc2)cc1)N(O)C=O` (centres undefined), the figures for the IC50 (in data set [4]; against Interstitial collagenase; in data set [3]) were 0.9 nM, above 50 µM and 2.4 nM, respectively.

With `CC1(C)OCC(C[C@@H](CS(=O)(=O)c2ccc(Oc3ccc(OC(F)(F)F)cc3)cc2)N(O)C=O)O1` (some centres undefined), the IC50 in data set [4] was 5.5 nM; at Interstitial collagenase, above 50 µM; in data set [3], 1.5 nM. The AUC in data set [1] was 2 µM·h.

Turning to `CC1(C)OC[C@H]([C@@H](CS(=O)(=O)c2ccc(Oc3ccc(OC(F)(F)F)cc3)cc2)N(O)C=O)O1` (stereo in doubt; 19w), the 50% inhibitory concentration (IC50) in data set [4] was 1.4 nM; against Interstitial collagenase, above 50 µM; in data set [3], 25 nM.

Regarding `CS(=O)(=O)N1CCN(CCC(CS(=O)(=O)c2ccc(Oc3ccc(OC(F)(F)F)cc3)cc2)N(O)C=O)CC1` (centres undefined), the IC50 in data set [4] is 0.79 nM; against Interstitial collagenase, above 50 µM; in data set [3], 0.33 nM. Further, the AUC in data set [1] worked out at 41 µM·h.
